In US9675638B2, “Use of tungsten (VI) salts for the treatment of female infertility in non-diabetic mammals” (OXOLIFE, S.L., priority 2013, dated 2017):
Values joined by “and” are separate entries in the source; they are usually repeats but may differ in a detail not shown here. Equal entries are not always repeated. Structures can show the parent of a compound that is named as a salt.

Tests used:
[1] = system: women whose ovulation is irregular or absent; conditions: cited from earlier work
[2] = system: female rats with streptozotocin-induced diabetes; conditions: cited from earlier work
Body weight study = type: in vivo, mouse; conditions: for Body weight, Average: average of 6 IRS2−/− female mice; for variation in body weight during administration: first 12 days of treatment, IRS2−/− female mice; for variation in body weight during administration / Body weight: dihydrate; for Body weight: individual IRS2−/− female mice
Protocol: (§1) 6 IRS2^−/− female mice of ages comprised between 6 and 8 weeks.
(§2) The female mice were housed in normal conditions, i.e., 12-hour light/darkness cycle and controlled moisture and temperature. The animals were voluntarily fed (also named ad libitum) with a standard feed diet.
(§3) After a period of acclimation, sodium tungstate was administered in the drinking water (ad libitum) by means of a 2 mg/ml solution of sodium tungstate dihydrate (marketed by Carlo Erba) in distilled water after the pre-treatment phase (day 0 of treatment) and for 12 days.
(§4) Body weight was monitored on day 0, 2, 5, 7, 9 and 12 of the treatment period, and after 6 hours of fasting on each of the aforementioned days blood glucose was determined by means of withdrawing blood from the tail vein and with a glucose sensor (Roche AccuTrend Glucose Sensor. Mannheim, Germany).

[3] = Glycemia study (blood glucose after 6 hours of fasting, glucose sensor); type: in vivo, mouse; conditions: for glycemia, Average: average of 6 IRS2−/− female mice; for variation in glycemia during administration: first 12 days of treatment, IRS2−/− female mice; for variation in glycemia during administration / glycemia: dihydrate; for glycemia: individual IRS2−/− female mice
Protocol: as §1, §2, §3, §4

IRS2−/− female mice [4] = test: Ovulation study: phase of the estrous cycle by vaginal smears (Papanicolaou); type: in vivo, mouse; parameters: key to phase of the estrous cycle: A: anestrus; D: diestrus; P: proestrus; E: estrus; M: metestrus; conditions: for phase of the estrous cycle: individual IRS2−/− female mice, dihydrate
Source text: (§5) 10 IRS2^−/− female mice of ages comprised between 6 and 8 weeks. 6 “wild-type” (IRS2^wt) male mice of ages comprised between 6 and 8 weeks.
(§6) The female and male mice were housed separately in normal conditions, i.e., 12-hour light/darkness cycle and controlled moisture and temperature. The animals were voluntarily fed (also named ad libitum) with a standard feed diet.
(§7) After a period of acclimation, the IRS2^−/− female mice were housed in groups of 4-6 mice/cage. Tungstate-free drinking water was administered to the animals during the pre-treatment phase (2 weeks).
(§8) Sodium tungstate was administered in the drinking water (ad libitum) by means of a 2 mg/ml solution of sodium tungstate dihydrate (marketed by Carlo Erba) in distilled water after the pre-treatment phase (day 0 of treatment) and up to 4 weeks before sacrificing the animals. The daily dose of sodium tungstate ingested by the mice is about 180 mg/kg of body weight.
During the pre-treatment period and during the first 3 weeks of treatment, vaginal smears were performed in 6 randomly chosen female mice on days −8; −5; −2; −1; 7; 8; 14; 15 and 22 to determine the phase of the estrous cycle they were in.
Between […] of saline solution was introduced into the vagina of the mice with a Pasteur pipette. The vaginal exudate was collected with the same pipette and deposited on a slide. Once air-dried, it was fixed and stained with the Papanicolaou technique.
The Papanicolaou technique comprises staining the vaginal smears fixed on the slide as follows: • 10 immersions in 50% v/v alcohol; • immersing in Harris hematoxylin solution for 3 minutes; • rinsing with running water; • 10 immersions in acid alcohol (1% hydrochloric acid); • rinsing with running water; • 10 immersions in 95% v/v alcohol; • immersing in OG-6 solution for 30 seconds; • 10 immersions in 96% v/v alcohol; • immersing in eosin solution for 1 minute; • 10 immersions in 96% v/v alcohol; • 10 immersions in 86% v/v alcohol; and • 10 immersions in xylol.
The preparations were analyzed by trained staff using a code in a single-blind manner to eliminate observer bias.
The samples were identified in the following phases: diestrus, proestrus, estrus, metestrus, anestrus or non-evaluable. The cyclicality of the four phases in periods of 4 to 6 days is an indicator of a normal estrous cycle, whereas the absence of this cyclicality and the persistence in anestrus, diestrus or proestrus phases are indicators of the absence of the estrous cycle.

IRS2−/− female mice [5] = test: Implantation and pregnancy study after mating with IRS2wt male mice; type: in vivo, mouse; conditions: for mean number of young/implanted embryos per female mouse pregnancy: treated IRS2−/− female mice
Source text: as §5, §6, §7, §8
After the first three weeks of treatment, the IRS2^−/− female mice were housed in cages in pairs together with an IRS2^wt male mouse continuously.
The mice were observed daily in search of signs of pregnancy or birth. After 4 weeks, the male mice were exchanged between the cages and kept in said cages for another 4 weeks.
The administration of tungstate was maintained for the 8 weeks in which the male and female mice were housed together. After these 8 weeks, treatment was withdrawn and the male and female mice were housed together for 4 additional weeks.
After this period lapsed, the female mice were sacrificed and biopsied in search of indications of pregnancy.
After the mating period of the method in section B lapsed, the female mice were sacrificed and biopsied in search of indications of pregnancy.

[6] = individual treated IRS2−/− female mice, dihydrate

SMILES: CCN(CC)CCOc1ccc(C(=C(Cl)c2ccccc2)c2ccccc2)cc1 [clomiphene citrate]
- pregnancy rate [1]: ≤ 50%
- restoring ovulation [1]: high percentage

SMILES: O.O.[Na+].[Na+].[O]=[W](=[O])([O-])[O-] [sodium tungstate, sodium tungstate dihydrate]
- circulating insulin levels ([2]; rats with streptozotocin-induced insulinopenia and diabetes, prolonged treatment (10 weeks)): partially recover
- percentage of births with respect to the number of positive curettages ([2]; streptozotocin-diabetic females after 10 weeks of treatment, mated with healthy males (non-diabetic 100%)): 66%
- Body weight, Average (Body weight study; Day 0 (start of treatment)): 17.03 g
- Body weight, Average (Body weight study; Day 2): 17.33 g
- Body weight, Average (Body weight study; Day 5): 16.97 g
- Body weight, Average (Body weight study; Day 7): 16.84 g
- Body weight, Average (Body weight study; Day 9): 17.35 g
- Body weight, Average (Body weight study; Day 12): 17.72 g
- variation in body weight during administration (Body weight study): no variations are observed
- variation in body weight during administration (Body weight study; listed as tungsten (VI) salt): does not modify
- Body weight (Body weight study; Day 0 (start of treatment)): 22.7 g and 15.33 g and 18.21 g and 16.5 g and 13.99 g and 15.45 g
- Body weight (Body weight study; Day 2): 22.9 g and 14.84 g and 18.98 g and 17.01 g and 14.18 g and 16.04 g
- Body weight (Body weight study; Day 5): 22.61 g and 14.89 g and 18.2 g and 16.61 g and 13.79 g and 15.72 g
- Body weight (Body weight study; Day 7): 22.42 g and 15.07 g and 17.81 g and 16.35 g and 13.74 g and 15.66 g
- Body weight (Body weight study; Day 9): 22.85 g and 15.56 g and 17.9 g and 16.89 g and 14.5 g and 16.39 g
- Body weight (Body weight study; Day 12): 23.15 g and 15.91 g and 18.24 g and 17.19 g and 14.92 g and 16.89 g
- glycemia, Average ([3]; Day 0 (start of treatment)): 128.17 mg/dL
- glycemia, Average ([3]; Day 2): 117.33 mg/dL
- glycemia, Average ([3]; Day 5): 122.33 mg/dL
- glycemia, Average ([3]; Day 7): 118.83 mg/dL
- glycemia, Average ([3]; Day 9): 125.17 mg/dL
- glycemia, Average ([3]; Day 12): 118.83 mg/dL
- variation in glycemia during administration [3]: no variations are observed
- variation in glycemia during administration ([3]; listed as tungsten (VI) salt): does not modify
- glycemia ([3]; Day 0 (start of treatment), 6 h fasting): 146 mg/dL and 129 mg/dL and 115 mg/dL and 126 mg/dL and 141 mg/dL and 112 mg/dL
- glycemia ([3]; Day 2, 6 h fasting): 136 mg/dL and 128 mg/dL and 118 mg/dL and 110 mg/dL and 105 mg/dL and 107 mg/dL
- glycemia ([3]; Day 5, 6 h fasting): 125 mg/dL and 142 mg/dL and 114 mg/dL and 111 mg/dL and 137 mg/dL and 105 mg/dL
- glycemia ([3]; Day 7, 6 h fasting): 140 mg/dL and 110 mg/dL and 106 mg/dL and 89 mg/dL and 133 mg/dL and 135 mg/dL
- glycemia ([3]; Day 9, 6 h fasting): 125 mg/dl (2×) and 153 mg/dl and 109 mg/dl and 108 mg/dl and 131 mg/dl
- glycemia ([3]; Day 12, 6 h fasting): 136 mg/dL and 116 mg/dL and 111 mg/dL and 86 mg/dL and 123 mg/dL and 141 mg/dL
- phase of the estrous cycle (IRS2−/− female mice [4]; day 7 of treatment, 2 mg/ml in drinking water (about 180 mg/kg/day)): M and E (4×) and E-M
- phase of the estrous cycle (IRS2−/− female mice [4]; day 8 of treatment, 2 mg/ml in drinking water): M and E-M (3×) and E (2×)
- phase of the estrous cycle (IRS2−/− female mice [4]; day 14 of treatment, 2 mg/ml in drinking water): E and E-M (3×) and D
- phase of the estrous cycle (IRS2−/− female mice [4]; day 15 of treatment, 2 mg/ml in drinking water): D and E (2×) and M (2×) and A
- phase of the estrous cycle (IRS2−/− female mice [4]; day 22 of treatment, 2 mg/ml in drinking water): D (2×) and A (2×) and M and P
- recovery of the estrous cycle, percentage of analyzed mice (IRS2−/− female mice [4]; infertile non-diabetic IRS2−/− female mice, on the seventh day of treatment): 100%
- Pregnancy (IRS2−/− female mice [5]; individual treated IRS2−/− female mice, mated with IRS2wt males, dihydrate): YES
- Number of implanted embryos or young born (embryos) (IRS2−/− female mice [5]; [6]): 7 embryos (3×) and 6 embryos
- Number of implanted embryos or young born (young) (IRS2−/− female mice [5]; [6]): 8 young (2×) and 1 young and 3 young
- pregnancy rate (IRS2−/− female mice [5]; treated IRS2−/− female mice (untreated 9%)): 80%
- mean number of young/implanted embryos per female mouse pregnancy (IRS2−/− female mice [5]; dihydrate): about 5
- mean number of young/implanted embryos per female mouse pregnancy (IRS2−/− female mice [5]; listed as tungsten (VI) salt, dihydrate): 5
